The target of the assay is T1, urease enzyme (Canavalia ensiformis, UniProt P07374).
T1 construct: purchased CAS Number: 9002-13-5
Put plainly: Urease inhibition assay (modified Berthelot assay). The class given is biochemical, Canavalia ensiformis (Jack bean). The settings on record: for inhibition at 100 µM: read-out: %Age Urease Inhibition Activity (0.1 mM). As for the experimental part: Chalcones are important medicinal compounds to combat several pathological conditions associated with ureolytic enzymes (urease). […] Urease inhibition assay was performed according to the reported protocol by Pervez et al..
All reagents and solvents were obtained from the supplier or recrystallized or redistilled as necessary. Thin-layer chromatography was performed using aluminum sheets (Merck) coated with silica gel 60 F254. Urease enzyme was purchased from Canavalia ensiformis (Jack bean), CAS Number: 9002-13-5. IR spectra were recorded using an IR PerkinElmer Spectrum 1 FTIR spectrophotometer, and peaks were reported as ax (neat)/cm^−1, which refer to the […] wave numbers. Proton magnetic resonance spectra were recorded in CDCl3 with a Bruker AM 300 spectrometer (Rheinstetten-Forchheim, Germany) operating at 300 MHz, respectively. The ^13C NMR spectra were recorded in CDCl3 with a Bruker AM 100 spectrometer operating at 100 MHz. Tetramethylsilane was used as an internal standard. Elemental analyses for C, H, and N were recorded with the PerkinElmer 2400 Series II CHN Analyzer. Melting points were recorded on a GallenKamp apparatus and are uncorrected.
The enzyme assay is a modified form of the commonly known Berthelot assay. A total volume of 85 µL assay mixture contained 10 µL of phosphate buffer at pH 7.0 in each well of the 96-well plate, to which 10 µL of sample solution and 25 µL of enzyme solution (0.1347 units) were added. The contents were pre-incubated at 37 °C for 5 min. Then, 40 µL of urea stock solution (20 mM) was added to each well, and incubation continued at 37 °C for another 10 min. After the given time, 115 µL phenol hypochlorite reagent was added to each well (freshly prepared by mixing 45 µL phenol reagent with 70 µL of alkali reagent). For color development, incubation was performed at 37 °C for another 10 min. Absorbance was measured at 625 nm using the 96-well plate reader Synergy HT.

T1 sequence (P07374 whole entry, looked up): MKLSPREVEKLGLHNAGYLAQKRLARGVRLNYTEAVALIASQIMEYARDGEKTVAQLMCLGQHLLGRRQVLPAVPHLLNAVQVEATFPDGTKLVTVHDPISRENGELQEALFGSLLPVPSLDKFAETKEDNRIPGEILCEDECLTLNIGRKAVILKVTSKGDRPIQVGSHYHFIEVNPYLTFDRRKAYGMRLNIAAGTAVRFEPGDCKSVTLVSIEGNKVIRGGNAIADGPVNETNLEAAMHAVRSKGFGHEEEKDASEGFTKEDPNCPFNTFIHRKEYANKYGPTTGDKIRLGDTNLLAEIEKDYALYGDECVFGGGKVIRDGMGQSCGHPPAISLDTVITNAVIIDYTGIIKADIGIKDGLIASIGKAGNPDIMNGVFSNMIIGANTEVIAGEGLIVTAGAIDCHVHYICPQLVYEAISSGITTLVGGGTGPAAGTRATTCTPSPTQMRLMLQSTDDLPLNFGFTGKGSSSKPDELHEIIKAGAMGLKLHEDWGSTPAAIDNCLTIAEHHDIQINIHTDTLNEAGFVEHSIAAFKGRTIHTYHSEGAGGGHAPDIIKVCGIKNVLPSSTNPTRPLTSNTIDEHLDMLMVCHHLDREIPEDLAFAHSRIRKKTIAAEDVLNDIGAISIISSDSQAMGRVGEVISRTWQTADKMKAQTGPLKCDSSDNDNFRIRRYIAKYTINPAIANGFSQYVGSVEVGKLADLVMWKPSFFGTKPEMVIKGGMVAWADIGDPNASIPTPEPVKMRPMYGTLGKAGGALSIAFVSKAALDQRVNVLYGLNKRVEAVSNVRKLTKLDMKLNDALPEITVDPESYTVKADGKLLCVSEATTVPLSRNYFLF

Consider `O=C(/C=C/c1ccc(-c2ccc([N+](=O)[O-])cc2)o1)c1ccccc1` [Compound 4a], for which the IC50 amounted to 91.9 ± 2.24 µM and the inhibition at 100 µM amounted to 50.7 ± 0.62%.

As for `O=C(/C=C/c1ccc(-c2ccc(Cl)cc2)o1)c1ccccc1` [Compound 4b], the “urease inhibition activity (in words)” value is “inactive” and the inhibition at 100 µM is 27.15 ± 0.17%.

On to `O=C(/C=C/c1ccc(-c2ccc(Br)cc2)o1)c1ccccc1` [Compound 4c], for which the “urease inhibition activity (in words)” value was “inactive” and the inhibition at 100 µM stood at 39.41 ± 0.34%.

For `O=C(/C=C/c1ccc(-c2cccc([N+](=O)[O-])c2)o1)c1ccccc1` [Compound 4d], the “urease inhibition activity (in words)” value was “inactive” and the inhibition at 100 µM was 46.5 ± 0.91%.

For `O=C(O)c1ccc(-c2ccc(/C=C/C(=O)c3ccccc3)o2)cc1` [Compound 4e], the IC50 was 25 ± 1.77 µM, the “urease inhibition activity (in words)” value is “inactive” and the inhibition at 100 µM stood at 65.5 ± 0.77%.

For `O=C(/C=C/c1ccc(-c2ccc(Cl)c(Cl)c2)o1)c1ccccc1` [Compound 4f, 1-phenyl-3-[5-(3′,4′-dichlorophenyl) -2-furyl]-2-propen-1-one], the IC50 came to 21 ± 3.52 µM and the inhibition at 100 µM worked out at 69.7 ± 1.86%.

In the case of `O=C(/C=C/c1ccc(-c2cc(Cl)cc(Cl)c2)o1)c1ccccc1` [Compound 4g], the “urease inhibition activity (in words)” value was “inactive” and the inhibition at 100 µM worked out at 39.7 ± 2.46%.

As for `O=C(/C=C/c1ccc(-c2cc(Cl)ccc2Cl)o1)c1ccccc1` [Compound 4h, 1-phenyl-3-[5-(2′,5′-dichlorophenyl)-2-furyl]-2-propen-1-one], the IC50 came to 16.1 ± 2.45 µM and the inhibition at 100 µM came to 66.2 ± 1.36%.

For `O=C(/C=C/c1ccc(-c2cc(Cl)ccc2[N+](=O)[O-])o1)c1ccccc1` [Compound 4i], the IC50 was determined as 90.8 ± 8.99 µM and the inhibition at 100 µM stood at 51.7 ± 1.62%.

On to `O=C(/C=C/c1ccc(-c2cccc(Cl)c2[N+](=O)[O-])o1)c1ccccc1` [Compound 4j], for which the IC50 turned out to be 26 ± 2.25 µM and the inhibition at 100 µM came to 68.24 ± 0.11%.

For `O=C(/C=C/c1ccc(-c2cccc(Cl)c2)o1)c1ccccc1` [Compound 4k], the IC50 came out at 23.1 ± 3.65 µM and the inhibition at 100 µM was 69.52 ± 0.16%.

Take `O=C(/C=C/c1ccc(-c2ccccc2[N+](=O)[O-])o1)c1ccccc1` [Compound 4l]: the IC50 was found to be 91.4 ± 6.25 µM and the inhibition at 100 µM worked out at 51.47 ± 0.41%.

Regarding `O=C(/C=C/c1ccc(-c2ccc([N+](=O)[O-])cc2Cl)o1)c1ccccc1` [Compound 4m], the IC50 was 26.7 ± 0.65 µM and the inhibition at 100 µM is 63.1 ± 0.86%.

With `O=C(O)c1cccc(-c2ccc(/C=C/C(=O)c3ccccc3)o2)c1` [Compound 4n], the IC50 came to 46.8 ± 5.44 µM and the inhibition at 100 µM came out at 62.3 ± 1.28%.

Regarding `O=C(/C=C/c1ccc(-c2ccc(Cl)cc2Cl)o1)c1ccccc1` [Compound 4o], the concentration for half-maximal inhibition (IC50) amounted to 34 ± 9.61 µM and the inhibition at 100 µM came to 54.9 ± 1.98%.

For `Cc1cc(-c2ccc(/C=C/C(=O)c3ccccc3)o2)cc([N+](=O)[O-])c1` [Compound 4p], the IC50 was determined as 52.6 ± 8.52 µM and the inhibition at 100 µM stood at 57.4 ± 3.02%.

For `O=C(/C=C/c1ccc(-c2ccc([N+](=O)[O-])cc2[N+](=O)[O-])o1)c1ccccc1` [Compound 4q], the IC50 stood at 44.4 ± 6.91 µM and the inhibition at 100 µM is 54.7 ± 0.73%.

With `Cc1c(-c2ccc(/C=C/C(=O)c3ccccc3)o2)cccc1[N+](=O)[O-]` [Compound 4r], the “urease inhibition activity (in words)” value is “inactive” and the inhibition at 100 µM was determined as 12.6 ± 3.37%.

Turning to `O=C(/C=C/c1ccc(-c2ccccc2Cl)o1)c1ccccc1` [Compound 4s, 1-phenyl-3-[5-(2′-chlorophenyl)-2-furyl]-2-propen-1-one], the IC50 turned out to be 18.7 ± 0.85 µM and the inhibition at 100 µM amounted to 71.4 ± 1.77%.
